The assay has as its target T1, KCNQ2/3 channels (Homo sapiens, UniProt O43525+O43526).
T1 construct: expressed in transfected cells
Nature of the assay: Fluorescence assay using a voltage sensitive dye (fluorimetry). The format is cell-based. The conditions noted are these: CHO-K1 cells expressing KCNQ2/3; for Emax: CHO-K1, plateau effect relative to saturated retigabine (50 μM) = 100%, negative values = antagonistic, read-out: Fluorimetry % efficacy (retigabine = 100%); for pEC50: IC50 where % efficacy is negative, read-out: Fluorimetry EC50/IC50.

pEC50: −log10 of the molar value.

T1 sequence (O43526 whole entry): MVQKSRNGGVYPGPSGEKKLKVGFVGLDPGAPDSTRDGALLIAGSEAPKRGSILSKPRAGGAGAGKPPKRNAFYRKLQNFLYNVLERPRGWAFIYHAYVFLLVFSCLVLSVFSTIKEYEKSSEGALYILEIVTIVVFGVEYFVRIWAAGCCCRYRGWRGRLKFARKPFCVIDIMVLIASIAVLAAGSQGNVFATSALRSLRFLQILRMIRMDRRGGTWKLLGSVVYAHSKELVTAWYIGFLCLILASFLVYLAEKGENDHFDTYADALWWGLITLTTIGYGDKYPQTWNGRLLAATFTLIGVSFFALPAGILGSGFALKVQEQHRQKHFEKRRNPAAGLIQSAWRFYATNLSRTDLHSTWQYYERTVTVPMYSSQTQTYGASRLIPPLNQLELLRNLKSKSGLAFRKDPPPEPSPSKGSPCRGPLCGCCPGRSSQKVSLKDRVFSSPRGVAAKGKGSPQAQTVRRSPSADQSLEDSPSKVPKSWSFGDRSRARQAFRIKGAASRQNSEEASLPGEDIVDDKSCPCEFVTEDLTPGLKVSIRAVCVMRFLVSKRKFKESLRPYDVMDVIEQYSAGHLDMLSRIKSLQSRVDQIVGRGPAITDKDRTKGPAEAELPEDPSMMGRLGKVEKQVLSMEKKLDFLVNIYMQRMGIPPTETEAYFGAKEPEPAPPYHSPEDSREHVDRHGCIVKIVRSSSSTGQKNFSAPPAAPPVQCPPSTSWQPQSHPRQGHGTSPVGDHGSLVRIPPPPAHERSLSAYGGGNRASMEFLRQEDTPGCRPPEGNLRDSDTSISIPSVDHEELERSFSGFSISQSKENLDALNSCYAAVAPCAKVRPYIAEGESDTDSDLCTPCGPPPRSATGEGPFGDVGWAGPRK
T1 sequence (O43525 whole entry): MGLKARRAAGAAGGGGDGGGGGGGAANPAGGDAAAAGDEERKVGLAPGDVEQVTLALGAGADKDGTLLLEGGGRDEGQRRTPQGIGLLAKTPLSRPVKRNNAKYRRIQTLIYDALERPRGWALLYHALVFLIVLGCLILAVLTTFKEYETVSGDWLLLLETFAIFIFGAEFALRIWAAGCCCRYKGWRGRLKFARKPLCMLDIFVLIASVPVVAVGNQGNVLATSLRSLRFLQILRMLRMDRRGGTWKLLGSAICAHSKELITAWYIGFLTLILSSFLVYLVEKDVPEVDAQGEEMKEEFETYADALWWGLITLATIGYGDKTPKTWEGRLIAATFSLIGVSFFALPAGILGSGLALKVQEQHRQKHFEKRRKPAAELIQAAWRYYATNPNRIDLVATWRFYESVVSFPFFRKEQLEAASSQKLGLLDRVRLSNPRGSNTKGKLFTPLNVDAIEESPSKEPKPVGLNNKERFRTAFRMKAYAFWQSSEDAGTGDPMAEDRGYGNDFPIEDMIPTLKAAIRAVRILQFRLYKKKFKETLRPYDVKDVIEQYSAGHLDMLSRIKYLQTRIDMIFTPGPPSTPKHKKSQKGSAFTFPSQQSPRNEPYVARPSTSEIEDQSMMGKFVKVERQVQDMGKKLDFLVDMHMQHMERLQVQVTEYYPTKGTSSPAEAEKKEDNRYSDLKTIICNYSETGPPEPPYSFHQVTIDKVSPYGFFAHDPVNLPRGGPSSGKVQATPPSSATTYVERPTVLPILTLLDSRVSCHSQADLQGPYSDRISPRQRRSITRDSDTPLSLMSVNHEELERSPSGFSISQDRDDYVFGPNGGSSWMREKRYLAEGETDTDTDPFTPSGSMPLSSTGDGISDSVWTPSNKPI

For the molecule `CCSc1nc(N2CCOCC2)cc(C)c1C(=O)NCc1cc(C(F)(F)F)ccc1F` [Example 95, 2-Ethylsulfanyl-N-[[2-fluoro-5-(trifluoromethyl)-phenyl]-methyl]-4-methyl-6-morpholin-4-yl-pyridine-3-carboxylic acid amide], the Emax stood at 62% and the pEC50 is 7.25.

With `CCC(C)Cc1nc(N2CCOCC2)cc(C)c1C(=O)NCCCC(C)(C)C` (stereo not shown) [Example 278, N-(4,4-Dimethyl-pentyl)-4-methyl-2-(2-methyl-butyl)-6-morpholin-4-yl-pyridine-3-carboxylic acid amide], the Emax turned out to be 225% and the pEC50 is 7.44.

Take `CCSc1nc(N2CCOCC2)cc(C)c1C(=O)NCc1ccc(C(F)(F)F)cc1F` [Example 135, 2-Ethylsulfanyl-N-[[2-fluoro-4-(trifluoromethyl)-phenyl]-methyl]-4-methyl-6-morpholin-4-yl-pyridine-3-carboxylic acid amide]: the Emax was found to be 43% and the pEC50 was 7.27.

As for `CCCC1COCCN1c1cc(C)c(C(=O)NCc2cccc(F)c2)c(SCC)n1` (stereo not shown) [Example 213, 2-Ethylsulfanyl-N-[(3-fluorophenyl)-methyl]-4-methyl-6-(3-propyl-morpholin-4-yl)-pyridine-3-carboxylic acid amide], the Emax was 131% and the pEC50 was 7.31.

As for `CCSc1nc(N2CC(OC)C2)cc(C)c1C(=O)NCc1cccc(F)c1` [Example 6, 2-Ethylsulfanyl-N-[(3-fluorophenyl)-methyl]-6-(3-methoxy-azetidin-1-yl)-4-methyl-pyridine-3-carboxylic acid amide], the Emax was found to be 140% and the pEC50 was 5.41.

For `COc1nc(N2CCOC[C@H]2C)cc(C)c1C(=O)NCc1ccc(F)c(F)c1` [Example 226, N-[(3,4-Difluoro-phenyl)-methyl]-2-methoxy-4-methyl-6-[(3R)-3-methyl-morpholin-4-yl]-pyridine-3-carboxylic acid amide], the Emax is 186% and the pEC50 was 6.89.

Take `CCSc1nc(N2CCOCC2)cc(C)c1C(=O)NCc1ccc(F)cc1OC` [Example 17, 2-Ethylsulfanyl-N-[(4-fluoro-2-methoxy-phenyl)methyl]-4-methyl-6-morpholin-4-yl-pyridine-3-carboxylic acid amide]: the Emax worked out at 21%.

For `CCSc1nc(N2CCN(C3CC3)CC2)cc(C)c1C(=O)NCc1cccc(F)c1` [Example 73, 6-(4-Cyclopropyl-piperazin-1-yl)-2-ethylsulfanyl-N-[(3-fluorophenyl)-methyl]-4-methyl-pyridine-3-carboxylic acid amide], the Emax worked out at 67% and the pEC50 was 5.52.

With `COc1nc(N2CCOCC2)cc(C)c1C(=O)NCc1ccc(Cl)cc1` [Example 165, N-[(4-Chlorophenyl)-methyl]-2-methoxy-4-methyl-6-morpholin-4-yl-pyridine-3-carboxylic acid amide], the Emax amounted to 135% and the pEC50 is 6.64.

As for `CCSc1nc(N2CCNC(=O)C2)cc(C)c1C(=O)NCc1cccc(F)c1` [Example 143, 2-Ethylsulfanyl-N-[(3-fluorophenyl)-methyl]-4-methyl-6-(3-oxo-piperazin-1-yl)-pyridine-3-carboxylic acid amide], the Emax came to 28%.

For the molecule `CCSc1nc(N2CCOC[C@H]2COC)cc(C)c1C(=O)NCc1cccc(F)c1` [Example 179, 2-Ethylsulfanyl-N-[(3-fluorophenyl)-methyl]-6-[(3R)-3-(methoxymethyl)-morpholin-4-yl]-4-methyl-pyridine-3-carboxylic acid amide], the Emax was 190% and the pEC50 was 6.61.

Turning to `Cc1cc(N2CCOC[C@H]2C)nc(C(C)C)c1C(=O)NCCCC(C)(C)C` [Example 185, N-(4,4-Dimethyl-pentyl)-2-isopropyl-4-methyl-6-[(3R)-3-methyl-morpholin-4-yl]-pyridine-3-carboxylic acid amide], the Emax amounted to 238% and the pEC50 was 7.82.

Turning to `CCSc1nc(N2CCOCC2)cc(C)c1C(=O)NCCC(O)C(C)(C)C` (stereo not shown) [Example 267, 2-Ethylsulfanyl-N-(3-hydroxy-4,4-dimethyl-pentyl)-4-methyl-6-morpholin-4-yl-pyridine-3-carboxylic acid amide], the Emax was found to be 223% and the pEC50 was 6.61.

In the case of `CCSc1nc(N2CCOCC2)cc(C(F)(F)F)c1C(=O)NCc1cccc(F)c1` [Example 11, 2-Ethylsulfanyl-N-[(3-fluorophenyl)-methyl]-6-morpholin-4-yl-4-(trifluoromethyl)-pyridine-3-carboxylic acid amide], the Emax worked out at 41% and the pEC50 was 6.76.

As for `CCSc1nc(N2CCOCC2)cc(C)c1C(=O)NCCOC` [Example 77, 2-Ethylsulfanyl-N-(2-methoxy-ethyl)-4-methyl-6-morpholin-4-yl-pyridine-3-carboxylic acid amide], the Emax was determined as 40%.

As for `CCSc1nc(N2CCOCC2)cc(C)c1C(=O)NCCCC1CCCC1` [Example 105, N-(3-Cyclopentyl-propyl)-2-ethylsulfanyl-4-methyl-6-morpholin-4-yl-pyridine-3-carboxylic acid amide], the Emax is 207% and the pEC50 was 6.75.

On to `CCSc1nc(N(C)CC2CCCOC2)cc(C)c1C(=O)NCc1cccc(F)c1` (stereo not shown) [Example 175, 2-Ethylsulfanyl-N-[(3-fluorophenyl)-methyl]-4-methyl-6-[methyl-(tetrahydro-pyran-3-yl-methyl)-amino]-pyridine-3-carboxylic acid amide], for which the Emax turned out to be 114% and the pEC50 was 6.06.

`Cc1cc(N2CCOC[C@H]2C)nc(C(C)C)c1C(=O)NCc1ccc(Cl)cc1` [Example 265, N-[(4-Chlorophenyl)-methyl]-2-isopropyl-4-methyl-6-[(3R)-3-methyl-morpholin-4-yl]-pyridine-3-carboxylic acid amide]: the Emax is 206% and the pEC50 was 7.55.

Consider `COc1nc(N2CCOC[C@H]2C)cc(C)c1C(=O)NCc1cc(F)cc(F)c1` [Example 234, N-[(3,5-Difluoro-phenyl)-methyl]-2-methoxy-4-methyl-6-[(3R)-3-methyl-morpholin-4-yl]-pyridine-3-carboxylic acid amide], for which the Emax was found to be 195% and the pEC50 is 6.91.

Consider `CCSc1nc(N(C)C2CCOCC2)cc(C)c1C(=O)NCc1cccc(F)c1` [Example 258, 2-Ethylsulfanyl-N-[(3-fluorophenyl)-methyl]-4-methyl-6-(methyl-tetrahydro-pyran-4-yl-amino)-pyridine-3-carboxylic acid amide], for which the Emax amounted to 170% and the pEC50 is 6.52.

Consider `CCSc1nc(NC)cc(C)c1C(=O)NCc1cccc(F)c1` [Example 34, 2-Ethylsulfanyl-N-[(3-fluorophenyl)-methyl]-4-methyl-6-methylamino-pyridine-3-carboxylic acid amide], for which the Emax is 37% and the pEC50 is 5.74.

With `CCSc1nc(N2CCO[C@@H](COC)C2)cc(C)c1C(=O)NCc1ccc(Cl)cc1` [Example 254, N-[(4-Chlorophenyl)-methyl]-2-ethylsulfanyl-6-[(2R)-2-(methoxymethyl)-morpholin-4-yl]-4-methyl-pyridine-3-carboxylic acid amide], the Emax came to 113% and the pEC50 was 6.03.

In the case of `CCSc1nc(N2CCOCC2)cc(C)c1C(=O)NCc1ccc(F)cn1` [Example 46, 2-Ethylsulfanyl-N-[(5-fluoro-pyridin-2-yl)-methyl]-4-methyl-6-morpholin-4-yl-pyridine-3-carboxylic acid amide], the Emax stood at 143% and the pEC50 was 5.32.

For `CCSc1nc(N2CCC(C)CC2)cc(C)c1C(=O)NCc1cccc(F)c1` [Example 70, 2-Ethylsulfanyl-N-[(3-fluorophenyl)-methyl]-4-methyl-6-(4-methyl-piperidin-1-yl)-pyridine-3-carboxylic acid amide], the Emax worked out at 175% and the pEC50 was 6.79.

For the molecule `CCSc1nc(N(C)C)cc(C)c1C(=O)NCc1cccc(F)c1` [Example 33, 6-Dimethylamino-2-ethylsulfanyl-N-[(3-fluorophenyl)-methyl]-4-methyl-pyridine-3-carboxylic acid amide], the Emax was determined as 110% and the pEC50 is 6.19.

Regarding `Cc1cc(N2CCOCC2)nc(C(C)C)c1C(=O)NCCC(O)C(C)(C)C` (racemic) [Example X5, N-(3-Hydroxy-4,4-dimethyl-pentyl)-2-isopropyl-4-methyl-6-morpholin-4-yl-pyridine-3-carboxylic acid amide], the pEC50 was 6.81.

In the case of `CCSc1nc(N2CCO[C@H](CO)C2)cc(C)c1C(=O)NCc1cccc(F)c1` [Example 291, 2-Ethylsulfanyl-N-[(3-fluorophenyl)-methyl]-6-[(2S)-2-(hydroxymethyl)-morpholin-4-yl]-4-methyl-pyridine-3-carboxylic acid amide], the Emax stood at 53% and the pEC50 is 5.10.

Consider `CCSc1nc(N2CC(O)C2)cc(C)c1C(=O)NCc1cccc(F)c1` [Example 7, 2-Ethylsulfanyl-N-[(3-fluorophenyl)-methyl]-6-(3-hydroxy-azetidin-1-yl)-4-methyl-pyridine-3-carboxylic acid amide], for which the Emax was found to be 44%.

On to `CCSc1nc(N2CCC(C(=O)O)CC2)cc(C)c1C(=O)NCc1cccc(F)c1` [Example 14], for which the Emax stood at 16%.

For `CCSc1nc(N2CCOCC2)cc(C)c1C(=O)NCCCc1ccc(F)cc1` [Example 108, 2-Ethylsulfanyl-N-[3-(4-fluorophenyl)-propyl]-4-methyl-6-morpholin-4-yl-pyridine-3-carboxylic acid amide], the Emax was 203% and the pEC50 is 6.50.

Consider `CCSc1nc(N2CCOCC2)cc(C)c1C(=O)NCCCOC` [Example 78, 2-Ethylsulfanyl-N-(3-methoxy-propyl)-4-methyl-6-morpholin-4-yl-pyridine-3-carboxylic acid amide], for which the Emax is 31%.

Source of the values: patent publication US9168259B2 (GRÜNENTHAL GMBH, priority 2010, dated 2015).
